Results from US7169932B2 (priority 2001, dated 2007).
Where two headings read alike, the source gives them in different places.

Experiments:
[1] = system: HIV-1; experiment: Cytopathic Effect (CPE) Inhibition Assay (XTT dye reduction); assay type: cell-based
Procedure: T-cell lines, CEM-SS, and MT-2, and viruses HIV-1 RF and HIV-1 NL4–3 (pNL4–3) were obtained from the National Institutes of Health (AIDS Research and Reference Reagent Program, Bethesda, Md.).
The ability of compounds to protect cells against HIV infection was measured by the […] dye reduction method, essentially as described (See Pauwels, R. Balzarini, J. Baba, M. Snoeck, R. Schols, D. Herdewijn, P. Desmyter, J. and De Clercq, E. 1988, “Rapid and automated tetrazolium-based colorimetric assay for the detection of anti-HIV compounds,”. J Virol Methods., 20: 309–321 and Weislow, O. S. Kiser, R. Fine, D. L. Bader, J. Shoemaker, R. H. and Boyd, M. R. 1989. “New soluble-formazan assay for HIV-1 cytopathic effects: application to high-flux screening of synthetic and natural products for AIDS-antiviral activity”. J. Natl. Cancer Inst. 81:577–586). Subject cells were infected with test virus at an moi of 0.025 to 0.819 or mock infected with medium only and added at 2×10^4 cells per well into 96 well plates containing half-log dilutions of test compounds. Six days later, 50 μl of XTT (1 mg/ml XTT tetrazolium, […] phenazine methosulfate) was added to the wells and the plate was reincubated for four hours. Viability, as determined by the amount of XTT formazan produced, was quantified spectrophotometrically by absorbance at 450 nm. Data from CPE assays were expressed as the percent of formazan produced in compound-treated cells compared to formazan produced in wells of uninfected, compound-free cells. The fifty percent effective concentration (EC50) was calculated as the concentration of compound that effected an increase in the percentage of formazan production in infected, compound-treated cells to 50% of that produced by uninfected, compound-free cells. The 50% cytotoxicity concentration (CC50) was calculated as the concentration of compound that decreased the percentage of formazan produced in uninfected, compound-treated cells to 50% of that produced in uninfected, compound-free cells. The therapeutic index was calculated by dividing the cytotoxicity (CC50) by the antiviral activity (EC50).

[2] = target: T1, HIV-1 protease (Q7S) (Human immunodeficiency virus type 1 group M subtype B, UniProt P04585, Q495S); experiment: HIV-1 Protease RET Assay; assay type: biochemical
T1 construct: made in house
Procedure: Ki's for the inhibitors of HIV-1 protease were determined using a resonance energy transfer (RET) assay. […] This enzyme is first partially purified as inclusion bodies from cell lysate. It is then solublized in 8M urea and passed through a Q-Sepharose column (Pharmacia) for further purification. To refold this protein, samples containing Q7S is dialyzed into 50 mM sodium phosphate pH 7.0, 50 mM NaCl, 10 mM DTT, and 10% glycerol.
The commercially available peptide substrate (Molecular Probes Cat. # H-2930) RE(EDANS)SQNYPIVQK(DABCYL)R is used to assess activity and Ki's. This peptide is cleaved quantitatively by HIV-1 Pr at the Tyr-Pro bond. The EDANS fluorophore absorbs at 340 nm and emits at 490 nm. The reaction is carried out in a 96 well plate in a total volume of 100 μL and is run for 12 minutes at 37 C under steady-state conditions with 5 μM substrate and 2 nM active dimer enzyme concentration. The literature value Km for this substrate and enzyme is 103+/−8 μM (See Matayoshi, et al., “Novel Fluorogenic Substrates for Assaying Retroviral Proteases by Resonance Energy Transfer,” Science 247, 954 (1990)). The buffer for this reaction is 0.1M sodium acetate pH 4.8, 1M NaCl, 1 mM EDTA, 5 mM dithiothreitol, 10% dimethyl sulfoxide and 1 mg/ml bovine serum albumin. Inhibition curves are fit using the Morrison tight binding equation.

[3] = Ki, table of drawn compounds, unit inferred
[4] = Human immunodeficiency virus 1, 144 h, read-out: Ave CPE EC50 (mM)
[5] = Ave. Ki (nM), RET assay, Q7S enzyme, pH 4.8, 37 C

Structure (SMILES) | EC50 ([1]; Human immunodeficiency virus 1) | Ki [2, 3] | EC50 [1, 4] | Ki [2, 5]
Cc1c(O)cccc1C(=O)N[C@@H](Cc1ccccc1)[C@H](O)C(=O)N1CSC(C)(C)[C@H]1C(=O)NCC(C)(C)C | 53 nM | ≤ 0.1 nM | – | –
Cc1cc(C(=O)N[C@@H](Cc2ccccc2)[C@H](O)C(=O)N2CSC(C)(C)[C@H]2C(=O)NCc2ccccc2C)n[nH]1 | 3000 nM | 19.5 nM | – | –
Cc1c(O)cccc1C(=O)N[C@@H](Cc1ccccc1)[C@H](O)C(=O)N1CSC(C)(C)[C@H]1C(=O)NCc1cccc(CN(C)C)c1 | 3200 nM | 10.5 nM | – | –
C=CCNC(=O)[C@H]1N(C(=O)[C@@H](O)[C@H](Cc2ccccc2)NC(=O)[C@@H]2CCCO2)CSC1(C)C | 3300 nM | 17.3 nM | – | –
C#CCNC(=O)[C@H]1N(C(=O)[C@@H](O)[C@H](Cc2ccccc2)NC(=O)[C@@H]2CCCO2)CSC1(C)C | 3740 nM | 16.8 nM | – | –
Cc1cc(C(=O)N[C@@H](Cc2ccccc2)[C@H](O)C(=O)N2CSC(C)(C)[C@H]2C(=O)NCc2ccc(Cl)cc2C)no1 | 4130 nM | 28 nM | – | –
C=CCN(C)C(=O)[C@H]1N(C(=O)[C@@H](O)[C@H](Cc2ccccc2)NC(=O)c2ccno2)CSC1(C)C | 4950 nM | 24.6 nM | – | –
Cc1ccccc1CNC(=O)[C@H]1N(C(=O)[C@@H](O)[C@H](Cc2ccccc2)NC(=O)c2c[nH]cn2)CSC1(C)C | ≥ 10000 nM | 55.8 nM | – | –
Cc1ccccc1CNC(=O)[C@H]1N(C(=O)[C@@H](O)[C@H](Cc2ccccc2)NC(=O)c2cc(C(C)(C)C)on2)CSC1(C)C | ≥ 10000 nM | 214 nM | – | –
COc1ccc(C(=O)NC(Cc2ccccc2)C(O)C(=O)N2CSC(C)(C)[C@H]2C(=O)NCc2ccccc2C)c(C)c1 (stereo in doubt) [Example B29, 3-[2-Hydroxy-3-(4-methoxy-2-methyl-benzoylamino)-4-phenyl-butyryl]-5,5-dimethyl-thiazolidine-4-carboxylic acid 2-methyl-benzylamide] | – | – | 1260 nM | 0.12 nM
Cc1c(O)cccc1C(=O)N[C@@H](Cc1ccccc1)[C@H](O)C(=O)N1CSC(C)(C)[C@H]1C(=O)NCc1cc(F)ccc1C(F)(F)F [Example A5, 3-(2-Hydroxy-3-{[1-(3-hydroxy-2-methyl-phenyl)-methyanoyl]amino}-4-phenyl-butanoyl)-5,5-dimethyl-thiazolidine-4-carboxlic acid fluoro trifluoromethyl-benzylamide] | – | – | 433 nM | 2 nM
COc1ccc(CNC(=O)[C@H]2N(C(=O)[C@@H](O)[C@H](Cc3ccccc3)NC(=O)c3cccc(O)c3C)CSC2(C)C)cc1 [Example A6, (R)-3-((2S,3S)-2-Hydroxy-3-{[1-(3-hydroxy-2-methyl-phenyl)-methanoyl]-amino}-4-phenyl-butanoyl)-5,5-dimethyl-thiazolidine-4-carboxylic acid 4-methoxy-benzylamide] | – | – | 36 nM | 0.22 nM
Cc1ccsc1CNC(=O)[C@H]1N(C(=O)[C@@H](O)[C@H](Cc2ccccc2)NC(=O)c2cccc(O)c2C)CSC1(C)C [Example A8] | – | – | 36 nM | 0.23 nM
Cc1c(O)cccc1C(=O)N[C@@H](Cc1ccccc1)[C@H](O)C(=O)N1CSC(C)(C)[C@H]1C(=O)NCc1ccc(C(F)(F)F)cc1 [Example A9, (R)-3-((2S,3S)-2-Hydroxy-3-{[1-(3-hydroxy-2-methyl-phenyl)-methanoyl]-amino}-4-phenyl-butanoyl)-5,5-dimethyl-thiazolidine-4-carboxylic acid 4-trifluoromethyl-benzylamide] | – | – | 565 nM | 4 nM
Cc1c(O)cccc1C(=O)N[C@@H](Cc1ccccc1)[C@H](O)C(=O)N1CSC(C)(C)[C@H]1C(=O)NCC(=O)c1ccccc1 [Example A10, (R)-3-((2S,3S)-2-Hydroxy-3-{[1-(3-hydroxy-2-methyl-phenyl)-methanoyl]-amino}-4-phenyl-butanoyl)-5,5-dimethyl-thiazolidine-4-carboxylic acid (2-oxo-2-phenyl-ethyl)-amide] | – | – | > 1000 nM | 51 nM
Cc1c(O)cccc1C(=O)N[C@@H](Cc1ccccc1)[C@H](O)C(=O)N1CSC(C)(C)[C@H]1C(=O)NCc1ccc(C(F)(F)F)c(F)c1 [Example A11] | – | – | 930 nM | 19 nM
Cc1c(O)cccc1C(=O)N[C@@H](Cc1ccccc1)[C@H](O)C(=O)N1CSC(C)(C)[C@H]1C(=O)NCc1ccc(F)cc1C(F)(F)F [Example A12] | – | – | 1090 nM | 1.7 nM
Cc1c(O)cccc1C(=O)N[C@@H](Cc1ccccc1)[C@H](O)C(=O)N1CSC(C)(C)[C@H]1C(=O)NCc1ccc(S(C)(=O)=O)cc1 [Example A13, 3-[2-Hydroxy-3-(3-hydroxy-2-methyl-benzoylamino)-4-phenyl-butyryl]-5,5-dimethyl-thiazolidine-4-carboxylic acid 4-methanesulfonyl-benzamide] | – | – | > 1000 nM | 44.1 nM
Cc1c(O)cccc1C(=O)N[C@@H](Cc1ccccc1)[C@H](O)C(=O)N1CSC(C)(C)[C@H]1C(=O)NCc1ccc(N(C)C)cc1 [Example A15, (R)-3-((2S,3S)-2-Hydroxy-3-{[1-(3-hydroxy-2-methyl-phenyl)-methanoyl]-amino}-4-phenyl-butanoyl)-5,5-dimethyl-thiazolidine-4-carboxylic acid 4-dimethylamino-benzylamide] | – | – | 130 nM | 10.9 nM
Cc1c(O)cccc1C(=O)N[C@@H](Cc1ccccc1)[C@H](O)C(=O)N1CSC(C)(C)[C@H]1C(=O)NCCc1ccccc1 [Example A19, (R)-3-((2S,3S)-2-Hydroxy-3-{[1-(3-hydroxy-2-methyl-phenyl)-methanoyl]-amino}-4-phenyl-butanoyl)-5,5-dimethyl-thiazolidine-4-carboxylic acid phenethyl-amide] | – | – | 442 nM | 10 nM
C=CCN(C)C(=O)[C@H]1N(C(=O)[C@@H](O)[C@H](Cc2ccccc2)NC(=O)c2cccc(O)c2C)CSC1(C)C [Example A23, (R)-3-((2S,3S)-2-Hydroxy-3-{[1-(3-hydroxy-2-methyl-phenyl)-methanoyl]-amino}-4-phenyl-butanoyl)-5,5-dimethyl-thiazolidine-4-carboxylic acid allyl-methyl-amide] | – | – | 72 nM | 0.65 nM
C#CCN(C)C(=O)[C@H]1N(C(=O)[C@@H](O)[C@H](Cc2ccccc2)NC(=O)c2cccc(O)c2C)CSC1(C)C [Example A27, (R)-3-((2S,3S)-2-Hydroxy-3-{[1-(3-hydroxy-2-methyl-phenyl)-methanoyl]-amino}-4-phenyl-butanoyl)-5,5-dimethyl-thiazolidine-4-carboxylic acid methyl-prop-2-ynyl-amide] | – | – | 72 nM | 0.62 nM
C=C(C)CNC(=O)[C@H]1N(C(=O)[C@@H](O)[C@H](Cc2ccccc2)NC(=O)c2cccc(O)c2C)CSC1(C)C [Example A28, (R)-3-((2S,3S)-2-Hydroxy-3-{[1-(3-hydroxy-2-methyl-phenyl)-methanoyl]-amino}-4-phenyl-butanoyl)-5,5-dimethyl-thiazolidine-4-carboxylic acid (2-methyl-allyl)-amide] | – | – | 41 nM | < 0.1 nM
Cc1c(O)cccc1C(=O)N[C@@H](Cc1ccccc1)[C@H](O)C(=O)N1CSC(C)(C)[C@H]1C(=O)NCc1cccc(N)c1 [Example A29, (R)-3-((2S,3S)-2-Hydroxy-3-{[1-(3-hydroxy-2-methyl-phenyl)-methanoyl]-amino}-4-phenyl-butanoyl)-5,5-dimethyl-thiazolidine-4-carboxylic acid 3-amino-benzylamide] | – | – | 117 nM | < 0.1 nM
